Test results taken from ChEMBL document CHEMBL2176937, “Small-molecule structure correctors target abnormal protein structure and function: structure corrector rescue of apolipoprotein E4-associated neuropathology” (J Med Chem, 2012).

Columns and labels:
[1] = Inhibition of apoE4 expressed in Neuro2a cells assessed as increase in COX1 level by Western blot assay; assay type: cell-based; settings: N2a
[2] = Inhibition of apoE4 expressed in rat PC12 cells assessed as reversal of mitochondrial impairment; assay type: cell-based; settings: pc-12

Compound: Cn1nc(CC(=O)Nc2ccc(CN3CCN(C(=O)OC(C)(C)C)CC3)cc2)c2ccccc2c1=O
- IC50 [1]: 41 nM

Compound: Cn1nc(CC(=O)Nc2cccc(-c3ccc(C#N)cc3)c2)c2ccccc2c1=O
- EC50 [2]: < 1 nM
